Key:
Test in all cases: relative viability (nuclei count vs DMSO), 5 days (fraction); higher = more cells survive
[1] = compound: N#CC1(c2ccc(NC(=O)c3cccnc3NCc3ccncc3)cc2)CCCC1 [Apatinib] + COc1cccc2cc(-c3nc([C@H]4CC[C@H](C(=O)O)CC4)n4ncnc(N)c34)[nH]c12 [OSI-027] (partner 0.5 µM)
Method in brief: (§1)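 Dosing by pin tool came one day after lung cancer cell lines were seeded in 1536-well plates, using either one drug or a fixed anchor-drug dose plus five library-drug doses (not always all listed) in √10 steps. After 5 days, nuclei were counted on 4× images. Relative viability is treated-well nuclei count divided by vehicle-well nuclei count, and values are medians of duplicate plates.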

[2] = compound: CN(C)C(=N)NC(=N)N [Metformin] + C[C@]1(O)C[C@@H](c2nc(-c3ccc4ccc(-c5ccccc5)nc4c3)c3c(N)nccn32)C1 [Linsitinib] (partner 1 µM)
Method in brief: as §1

[3] = compound: N#CC1(c2ccc(NC(=O)c3cccnc3NCc3ccncc3)cc2)CCCC1 [Apatinib] + CC(C)C[C@H](NC(=O)[C@H](Cc1ccccc1)NC(=O)c1cnccn1)B(O)O [Bortezomib] (partner 0.002 µM)
Method in brief: as §1

[4] = compound: N#CC1(c2ccc(NC(=O)c3cccnc3NCc3ccncc3)cc2)CCCC1 [Apatinib] + CC(=O)Nc1cccc(-n2c(=O)n(C3CC3)c(=O)c3c(Nc4ccc(I)cc4F)n(C)c(=O)c(C)c32)c1 [Trametinib] (partner 0.02 µM)
Method in brief: as §1

NCI-H460
relative viability ([1]; first compound 0.08 µM): 0.799
relative viability ([1]; first compound 0.253 µM): 0.746
relative viability ([1]; first compound 0.8 µM): 0.491
relative viability ([1]; first compound 2.53 µM): 0.541
relative viability ([1]; first compound 8 µM): 0.333
relative viability ([2]; first compound 31.62 µM): 0.772
relative viability ([2]; first compound 100 µM): 0.774
relative viability ([2]; first compound 316.23 µM): 0.662
relative viability ([2]; first compound 1000 µM): 0.843
relative viability ([3]; first compound 0.08 µM): 1.11
relative viability ([3]; first compound 0.253 µM): 1.03
relative viability ([3]; first compound 0.8 µM): 0.888
relative viability ([3]; first compound 2.53 µM): 0.98
relative viability ([3]; first compound 8 µM): 1.01
relative viability ([4]; first compound 0.08 µM): 0.119
relative viability ([4]; first compound 0.253 µM): 0.172
relative viability ([4]; first compound 0.8 µM): 0.223
relative viability ([4]; first compound 2.53 µM): 0.134
relative viability ([4]; first compound 8 µM): 0.128

From the supplement of paper PMC10307832
